Test results from patent US20240254174A1 (priority 2023, published 2024).
Several values for one entry are separate records, joined by “and”; a condition that tells them apart may be missing. Identical values can stand only once. Entries after “also recorded” stand apart in the source; their conditions may differ.

How the values were obtained:
[1] = system: non-transfected N2a cells
α7 nAChR [2] = molecular target: T1, α7 nAChR (Homo sapiens, UniProt P36544); experiment: cell-based; format: cell-based
α9α10 nAChR = α9α10 nAChR (Homo sapiens, UniProt Q9GZZ6+Q9UGM1); experiment: cell-based
α7 nAChR [3] = molecular target: T1, α7 nAChR; experiment: cell-based; details: read-out: inhibition of ACh-mediated currents on α7 nAChR
nAChR subtypes = format: cell-based, Human
[4] = molecular target: α7 nAChR (nicotinic acetylcholine receptor), expressed in Xenopus laevis oocytes (Human) (UniProt P36544); experiment: cell-based or functional assay
[5] = molecular target: α9α10 nAChR, expressed in Xenopus laevis oocytes (Human) (UniProt Q9UGM1); experiment: cell-based or functional assay
[6] = system: α7-nAChR transfected cells; format: cell-based
[7] = system: non-transfected HEK cells; format: cell-based, human
[8] = in vivo
[9] = system: α7-nAChR transfected N2a cells; format: cell-based
Pdcd4 protein = format: cell-based
BDNF [10] = format: cell-based
Pdcd4 = details: mouse, in vivo
BDNF [11] = details: mouse, in vivo
Target sequence in this assay (P21237 131-249): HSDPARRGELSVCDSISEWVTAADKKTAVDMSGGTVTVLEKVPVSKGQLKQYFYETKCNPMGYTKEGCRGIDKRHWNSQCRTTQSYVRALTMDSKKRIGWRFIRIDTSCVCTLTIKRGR

T1 sequence (P36544 23-502 limits assumed): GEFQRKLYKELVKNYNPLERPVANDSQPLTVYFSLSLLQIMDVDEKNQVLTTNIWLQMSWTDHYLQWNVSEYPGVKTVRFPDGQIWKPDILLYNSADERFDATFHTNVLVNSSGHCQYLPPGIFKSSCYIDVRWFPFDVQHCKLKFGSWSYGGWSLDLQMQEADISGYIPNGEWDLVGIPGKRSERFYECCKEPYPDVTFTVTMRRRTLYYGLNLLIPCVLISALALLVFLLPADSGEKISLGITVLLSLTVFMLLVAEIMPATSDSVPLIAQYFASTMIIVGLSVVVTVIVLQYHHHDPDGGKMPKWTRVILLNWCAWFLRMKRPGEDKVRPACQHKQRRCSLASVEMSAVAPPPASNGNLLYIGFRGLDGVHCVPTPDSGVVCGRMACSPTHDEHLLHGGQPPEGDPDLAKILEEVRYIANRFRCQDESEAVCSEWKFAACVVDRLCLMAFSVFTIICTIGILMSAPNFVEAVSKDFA
α7 nAChR (nicotinic acetylcholine receptor), expressed in Xenopus laevis oocytes (Human), sequence (P36544 23-502): as the sequence (P36544 23-502 limits assumed) above
Pdcd4, sequence (Q61823 whole entry): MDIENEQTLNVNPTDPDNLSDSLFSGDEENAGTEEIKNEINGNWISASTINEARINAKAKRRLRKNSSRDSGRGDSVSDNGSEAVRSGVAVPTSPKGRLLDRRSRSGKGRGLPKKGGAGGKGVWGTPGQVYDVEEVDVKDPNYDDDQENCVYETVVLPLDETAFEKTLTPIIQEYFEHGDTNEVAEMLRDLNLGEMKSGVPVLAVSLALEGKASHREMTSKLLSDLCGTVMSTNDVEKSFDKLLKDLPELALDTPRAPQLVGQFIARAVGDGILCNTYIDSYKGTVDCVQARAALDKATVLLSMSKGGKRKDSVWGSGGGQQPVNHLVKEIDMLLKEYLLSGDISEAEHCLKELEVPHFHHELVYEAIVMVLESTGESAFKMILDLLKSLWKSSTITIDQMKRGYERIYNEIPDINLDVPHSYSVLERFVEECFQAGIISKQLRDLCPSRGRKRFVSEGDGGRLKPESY
α9α10 nAChR, sequence (Q9UGM1 26-479 limits assumed): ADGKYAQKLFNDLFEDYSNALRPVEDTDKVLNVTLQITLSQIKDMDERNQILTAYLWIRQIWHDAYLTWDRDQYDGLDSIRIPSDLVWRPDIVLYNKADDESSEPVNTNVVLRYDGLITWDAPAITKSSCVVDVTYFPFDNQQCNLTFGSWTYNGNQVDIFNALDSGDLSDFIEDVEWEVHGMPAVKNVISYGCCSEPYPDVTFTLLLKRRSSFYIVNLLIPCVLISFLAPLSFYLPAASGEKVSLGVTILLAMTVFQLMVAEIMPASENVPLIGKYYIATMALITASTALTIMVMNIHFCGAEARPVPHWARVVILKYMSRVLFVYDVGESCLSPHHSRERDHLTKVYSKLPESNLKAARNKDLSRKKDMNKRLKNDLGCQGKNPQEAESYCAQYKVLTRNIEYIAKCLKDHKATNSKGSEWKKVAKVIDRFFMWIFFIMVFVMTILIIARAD
α9α10 nAChR, sequence (Q9GZZ6 25-450 limits assumed): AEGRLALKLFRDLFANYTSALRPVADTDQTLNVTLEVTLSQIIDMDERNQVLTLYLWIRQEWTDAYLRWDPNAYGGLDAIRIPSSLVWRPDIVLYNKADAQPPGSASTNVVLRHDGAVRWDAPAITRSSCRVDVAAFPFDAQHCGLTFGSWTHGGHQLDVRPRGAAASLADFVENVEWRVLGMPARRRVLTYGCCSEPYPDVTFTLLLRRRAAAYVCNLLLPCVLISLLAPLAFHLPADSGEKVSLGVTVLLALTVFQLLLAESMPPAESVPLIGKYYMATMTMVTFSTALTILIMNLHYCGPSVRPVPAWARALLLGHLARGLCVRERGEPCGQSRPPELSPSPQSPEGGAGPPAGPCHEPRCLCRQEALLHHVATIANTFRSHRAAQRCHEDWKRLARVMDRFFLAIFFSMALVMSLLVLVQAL
α9α10 nAChR, expressed in Xenopus laevis oocytes (Human), sequence (Q9UGM1 23-479, chain 1 of 2): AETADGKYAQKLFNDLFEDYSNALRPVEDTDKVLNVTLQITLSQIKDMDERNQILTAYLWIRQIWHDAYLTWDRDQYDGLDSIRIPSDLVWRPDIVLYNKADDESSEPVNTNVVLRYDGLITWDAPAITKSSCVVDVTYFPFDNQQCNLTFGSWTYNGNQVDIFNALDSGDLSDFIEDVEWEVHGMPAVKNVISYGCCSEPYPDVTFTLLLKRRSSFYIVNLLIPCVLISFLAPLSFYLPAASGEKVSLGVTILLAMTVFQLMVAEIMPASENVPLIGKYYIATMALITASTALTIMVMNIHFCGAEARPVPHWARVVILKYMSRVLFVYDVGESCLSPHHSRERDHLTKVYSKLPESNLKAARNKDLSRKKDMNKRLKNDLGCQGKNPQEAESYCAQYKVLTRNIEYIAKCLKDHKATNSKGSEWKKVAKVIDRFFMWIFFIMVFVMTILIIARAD
α9α10 nAChR, expressed in Xenopus laevis oocytes (Human), sequence (Q9GZZ6 25-450, chain 2 of 2, further chain): as the sequence (Q9GZZ6 25-450 limits assumed) above

Compound: DMSO
- cell viability, positive control [1]: kills cells

Compound: CC[C@H](C)[C@H](NC(=O)[C@H](CC(=O)O)NC(=O)[C@H](CS)NC(=O)[C@H](CO)NC(=O)[C@@H](NC(=O)CNC(=O)[C@H](CC(C)C)NC(=O)[C@H](CCCNC(=N)N)NC(=O)[C@@H]1CCCN1C(=O)[C@H](CC(N)=O)NC(=O)[C@H](CCC(=O)O)NC(=O)[C@@H]1CCCN1C(=O)[C@H](CCSC)NC(=O)[C@H](Cc1c[nH]c2ccccc12)NC(=O)[C@@H](NC(=O)[C@@H](NC(=O)[C@@H](N)Cc1ccc(O)cc1)[C@@H](C)O)[C@@H](C)CC)[C@@H](C)O)C(=O)N[C@@H](Cc1ccccc1)C(=O)N[C@H](C(=O)N[C@@H](CC(N)=O)C(=O)N[C@@H](CO)C(=O)N[C@@H](CCCNC(=N)N)C(=O)NCC(=O)N[C@@H](CCCCN)C(=O)N[C@@H](CCCNC(=N)N)C(=O)N[C@@H](C)C(=O)N[C@@H](CO)C(=O)N[C@@H](CCCCN)C(=O)NCC(=O)O)[C@@H](C)O [RVG peptide, reference compound]
- IC50 (α7 nAChR [2]; α7 nAChR potency (IC50, concentration response profile)): 32 µM and 31 µM
- IC50 (α9α10 nAChR): 153 ± 14 µM
- inhibition at 100 µM (α7 nAChR [3]): > 80%
- inhibition of ACh-mediated currents on several other nAChR subtypes (nAChR subtypes): > 25%
- nAChR subtype selectivity (in words) (nAChR subtypes): not target specific; also recorded: slight preference for the α7-nAChR; also recorded: not very selective
- neuro-/cytotoxicity (HEK cell lines): not neuro- or cyto-toxic

Compound: RVG peptide (rabies viral glycoprotein peptide)
- potency (concentration response profile, inhibition of ACh-mediated currents) [4]: 31 µM
- potency (concentration response, inhibition of ACh-mediated currents) [4]: 32 µM
- potency (concentration response profile, inhibition of ACh-mediated currents) [5]: 153 µM

Compound: YRKMW [α-btx Region 1]
- effect of peptide regions on α7 nAChR mediated currents (in words) (α7 nAChR [2]): inhibit

Compound: YRKMWMPENPRLGTSCDAFCSSRGKVVELGRRRRRRRRR [lead CPP-9dR]
- delivery of siPdcd4-FL into α7-nAChR transfected cells [6]: can facilitate delivery
- delivery of siPdcd4-FL into non-transfected HEK cells [7]: not into non-transfected HEK cells
- siPdcd4-FL delivery into mouse CNS [8]: can facilitate siPdcd4-FL delivery into mouse CNS
- brain regional distribution ([8]; mouse): accumulate in the hippocampus and prefrontal cortex

Compound: YTIW [RVG Region 1]
- effect of peptide regions on α7 nAChR mediated currents (in words) (α7 nAChR [2]): minimal effects

Compound: CDIFTNSRGKRASKG [RVG Region 3]
- effect of peptide regions on α7 nAChR mediated currents (in words) (α7 nAChR [2]): slightly antagonizes

Compound: CDAFCSSRGKVVELG [α-btx Region 3]
- effect of peptide regions on α7 nAChR mediated currents (in words) (α7 nAChR [2]): inhibit

Compound: α-bungarotoxin [reference compound]
- cell entry / labeling (in words) [9]: unable to enter

Compound: CSCC[C@H](NC(=O)[C@H](CCCCN)NC(=O)[C@H](CCCNC(=N)N)NC(=O)[C@@H](N)Cc1ccc(O)cc1)C(=O)N[C@@H](Cc1c[nH]c2ccccc12)C(=O)N[C@@H](CCSC)C(=O)N1CCC[C@H]1C(=O)N[C@@H](CCC(=O)O)C(=O)N[C@@H](CC(N)=O)C(=O)N1CCC[C@H]1C(=O)N[C@@H](CCCNC(=N)N)C(=O)N[C@@H](CC(C)C)C(=O)NCC(=O)N[C@H](C(=O)N[C@@H](CO)C(=O)N[C@@H](CS)C(=O)N[C@@H](CC(=O)O)C(=O)N[C@@H](C)C(=O)N[C@@H](Cc1ccccc1)C(=O)N[C@@H](CS)C(=O)N[C@@H](CO)C(=O)N[C@@H](CO)C(=O)N[C@@H](CCCNC(=N)N)C(=O)NCC(=O)N[C@@H](CCCCN)C(=O)N[C@H](C(=O)N[C@H](C(=O)N[C@@H](CCC(=O)O)C(=O)N[C@@H](CC(C)C)C(=O)NCC(=O)O)C(C)C)C(C)C)[C@@H](C)O [lead peptide]
- α7 nAChR potency (IC50, concentration response profile) (α7 nAChR [2]): low μM
- inhibition of ACh-mediated currents on no more than two subtypes (positive hit criterion) (nAChR subtypes): > 80%
- inhibition of ACh-mediated currents on the other tested nAChR subtypes (nAChR subtypes): < 25%
- nAChR subtype selectivity (in words) (nAChR subtypes): minimally targeting nine other nAChR subtypes; also recorded: high selectivity
- time to entry into neuronal-like cells post-exposure [9]: ≤ 3 h
- time visually present in neuronal-like cells [9]: up to 72 hrs
- neuro-/cytotoxicity (HEK cell lines): not neuro- or cyto-toxic

Compound: MPENPRLGTS [RVG Region 2]
- effect of peptide regions on α7 nAChR mediated currents (in words) (α7 nAChR [2]): minimal effects

Compound: 5′-GAGGCUAUGAGAGAAUUUATT-FL-3′ [siPdcd4]
- expression of Pdcd4 protein (Pdcd4 protein): knock down
- BDNF production (BDNF [10]): enhance
- Pdcd4 expression in tissue (Pdcd4): decreases
- BDNF production in tissue (BDNF [11]): enhance
